# Data taken from patent publication EP0097071A1, “Benzhydryl sulfinylacetamide derivatives and their therapeutical use” (LABORATOIRE L. LAFON Société anonyme dite:, priority 1982, dated 1983).
# Legend:
# Format in all cases: in vivo
# souris mâle [1] = assay: Pentobarbital-induced sleep duration
# Text: Les composés selon l'invention se distinguent du benzhydrylsulfinylacétamide (CRL 40476) précité par une différence d'action vis-à-vis du sommeil barbiturique. […]. Cette différence d'action qui est intéressante sur le plan thérapeutique est illustrée par le tableau IV
# souris [2] = assay: Interaction with barbital (sleep)
# Protocol: (§1) On a résumé ci-après les résultats des essais pharmacologiques qui ont été entrepris avec les produits selon la présente addition. Dans ces essais, les produits de formule I à étudier ont été administrés par voie intrapéritonéale, en suspension dans une solution aqueuse de gomme arabique, sous un volume de 20 ml/kg chez la souris mâle et sous un volume de 5 ml/kg chez le rat mâle.
# Une demi-heure après l'administration de CRL 40933, des lots de 10 souris reçoivent une injection intrapéritonéale de 220 mg/kg de barbital.
# souris [3] = assay: Motility reduced by hypoxic aggression (acute hypobaric anoxia)
# Protocol: as §1
# Une demi-heure après avoir reçu le CRL 40933, les souris (10 par dose, 20 témoins) sont soumises à une anoxie hypobare aiguë [dépression de 600 mm Hg (soit environ 8 x 10^4 pascals) en 90 s, puis détente de 45 s], puis elles sont placées en actimètre où leur motilité est enregistrée pendant 10 min.
# souris mâle [4] = assay: Toxicity, DL-0; conditions: i.p.
# Protocol: as §1
# La toxicité a été étudiée chez la souris mâle. Les résultats relatifs à la DL-0 (dose minimale non mortelle) sont donnés dans le tableau II ci-après.
# souris [5] = assay: Behavioural despair (forced immersion); conditions: souris
# Protocol: as §1
# Une demi-heure après avoir reçu le CRL 40933, des lots de 10 souris par dose sont placés dans un espace restreint rempli d'eau sur une hauteur de 6 cm; on note la durée d'immobilité entre la 2e et la 6e minute suivant l'immersion.
# souris mâles = assay: Global behaviour and reactivities, mouse; conditions: souris
# Protocol: as §1
# (§2) Pour apprécier le comportement global et les réactivités, des lots de six animaux (souris mâles ou rats mâles) ont été observés avant administration de chaque produit, puis 15 min, 30 min, 1 h, 2 h, 3 h et 24 h après administration de chaque produit. Les résultats sont consignés dans le tableau III ci-après, […]
# souris [6] = assay: Spontaneous motility (actimeter)
# Protocol: as §1
# Une demi-heure, après avoir reçu le CRL 40933, les souris (6 par dose, 12 témoins) sont placées en actimètre où leur motilité est enregistrée pendant 30 min.
# souris [7] = assay: Electroshock
# Protocol: as §1
# (§3) Les essais sont effectués sur des lots de 10 souris (par dose) 0,5 h après l'administration du CRL 40933.
# SNC = assay: Essential activity on the CNS (Tableau I and conclusions of the neuropsychopharmacological study); conditions: in vivo
# Text: Dans le tableau I ci-après, on a consigné un certain nombre de composés selon la formule I de façon nullement limitative, en mentionnant l'activité essentielle sur le SNC.
# Les composés de formule I agissent tous sur le SNC. Les produits des exemples 1-3 et 7-8 sont des agents stimulants, en revanche les produits des exemples 4-6 sont des agents sédatifs.
# souris [8] = assay: Motility reduced by habituation to the enclosure
# Protocol: as §1
# Après 18 h de séjour dans les actimètres, les souris (6 par dose, 12 témoins) reçoivent le CRL 40933. Elles sont aussitôt replacées dans leurs enceintes respectives et, 30 min plus tard, on enregistre leur motilité pendant 30 min.
# rats = assay: Interaction with amphetamine (stereotypies); conditions: rat; 8 mg/kg à 128 mg/kg i.p.
# Protocol: as §1
# L'amphétamine (2 mg/kg)est injectée par voie intrapéritonéale à des lots de 6 rats, 30 min après l'administration de CRL 40933.
# homme = assay: Clinical trials; conditions: for résultats en tant que médicaments de l'éveil: notamment vieillard, gélules ou comprimés de 100 à 200 mg, 1 à 3 par jour
# Text: Les études cliniques ont porté sur les troubles de la vigilance, de l'éveil et des états confusionnels, d'une part, et sur les troubles de l'affectivité, du contact et des dépressions, d'autre part.
# souris [9] = assay: Intergroup aggressiveness; conditions: dose not stated
# Protocol: as §1
# Après avoir séjourné pendant 3 semaines dans chacune des moitiés d'une cage séparées par une cloison opaque, des groupes de 3 souris reçoivent le CRL 40933. 30 min plus tard, les deux groupes d'une même cage sont réunis par retrait de la cloison et on note le nombre de combats qui surviennent en 10 min.
# rat = assay: Interaction with apomorphine, rat; conditions: apomorphine 0,5 mg/kg s.c., dose not stated
# Protocol: as §1
# Le CRL 40933 est administré à des lots de 6 rats 0,5 h avant l'injection sous-cutanée de 0,5 mg/kg d'apomorphine.
# souris [10] = assay: Traction test; conditions: 0,5 h after administration, dose not stated
# Protocol: as §1, §3
# souris [11] = assay: Interaction with reserpine
# Protocol: as §1
# Quatre heures après l'injection intrapéritonéale de 2,5 mg/kg de réserpine, des lots de 6 souris reçoivent le CRL 40933.
# rats mâles = assay: Global behaviour and reactivities, rat
# Protocol: as §1, §2
# souris [12] = assay: Interaction with apomorphine, mouse
# Protocol: as §1
# Des lots de 6 souris par dose reçoivent le CRL 40933 0,5 h avant l'injection sous-cutanée d'apomorphine administrée à la dose de 1 ou 16 mg/kg.
# souris [13] = assay: Asphyxic anoxia (gallamine triethiodide); conditions: 64 mg/kg et 256 mg/kg i.p.
# Protocol: as §1
# Des lots de 10 souris par dose reçoivent le CRL 40933 30 min avant l'administration intrapéritonéale de 32 mg/kg de triiodoéthylate de gallamine.
# souris [14] = assay: Interaction with oxotremorine
# Protocol: as §1
# Le CRL 40933 est administré à des lots de 6 souris 0,5 h avant l'injection intrapéritonéale de 0,5 mg/kg d'oxotrémorine.
# souris [15] = assay: Four plates test
# Protocol: as §1, §3
# [16] = dose 256 mg/kg i.p., 0,5 h before pentobarbital
# [17] = 16 mg/kg, 64 mg/kg et 256 mg/kg i.p.
smiles,measurement,setting,value
CCNC(=O)C[S+]([O-])C(c1ccccc1)c1ccccc1 (stereo not shown) [Exemple 4],Action sur la durée du sommeil induit par le pentobarbital (50 mg/kg i.p.) effet,"souris mâle [1]; dose 64 mg/kg i.p., 0,5 h before pentobarbital",(a)
same,Action sur la durée du sommeil induit par le pentobarbital (50 mg/kg i.p.) effet,"souris mâle [1]; dose 128 mg/kg i.p., 0,5 h before pentobarbital",(a)
same,Action sur la durée du sommeil induit par le pentobarbital (50 mg/kg i.p.) effet,souris mâle [1]; [16],(a)
same,sommeil barbiturique,souris [2]; dose not stated,effet antagoniste
same,récupération motrice après hypoxie,souris [3]; doses élevées,amélioration sensible
same,DL-O,souris mâle [4],supérieure à 512 mg/kg
same,"hypomotilité de ""désespoir""",souris [5]; dose not stated,diminution
same,ensemble d'effets de type sédatif,souris mâles; doses faibles et moyennes,"sédation, hypo- réactivité, hypoagressivité, hypothermie"
same,activité motrice,souris [6]; doses faibles et moyennes,absence de toute diminution d'activité motrice
same,motilité spontanée,souris [6]; doses élevées,hypermotilité discrète
same,effet convulsivant de l'électrochoc,souris [7]; doses faibles et moyennes,antagonisme
same,Activité sur le SNC,SNC,sédatif
same,activité chez la souris habituée à son enceinte,souris [8]; doses élevées,reprise modérée de l'activité
CC(C)(C)NC(=O)C[S+]([O-])C(c1ccccc1)c1ccccc1 (stereo not shown) [Exemple 3],Activité sur le SNC,SNC,stimulant
O=C(C[S+]([O-])C(c1ccccc1)c1ccccc1)N1CCOCC1 (stereo not shown) [Exemple 6],Activité sur le SNC,SNC,sédatif
CC(C)NC(=O)C[S+]([O-])C(c1ccccc1)c1ccccc1 (stereo not shown) [Exemple 2],stéréotypies amphétaminiques,rats,semble potentialiser faiblement
same,action contre l'énurésie,homme,agissent efficacement
same,résultats en tant que médicaments de l'éveil,homme,excellents résultats
same,agressivité intergroupes (nombre de combats),souris [9],diminue très modérément
same,stéréotypies induites par l'apomorphine,rat,ne sont pas modifiées
same,déficit moteur (traction),souris [10],ne provoque pas de déficit moteur majeur
same,Action sur la durée du sommeil induit par le pentobarbital (50 mg/kg i.p.) effet,souris mâle [1]; [16],(a)
same,durée du sommeil barbiturique,souris [2]; 256 mg/kg i.p.,diminue nettement
same,ptôsis réserpinique,souris [11]; 256 mg/kg i.p.,diminue très modérément
same,récupération motrice (motilité réduite par agression hypoxique),souris [3]; 64 mg/kg et surtout 256 mg/kg i.p.,amélioration nette
same,DL-O,souris mâle [4],supérieure à 512 mg/kg
same,Observations (comportement global et réactivités),rats mâles; 128 mg/kg i.p.,mydriase pendant 3 h
same,durée d'immobilité,souris [5]; dès la dose de 16 mg/kg i.p.,diminue nettement
same,comportement de verticalisation et stéréotypies (apomorphine),souris [12]; dose not stated,laisse inchangés
same,hypothermie produite par l'apomorphine,souris [12]; dose not stated,laisse inchangés
same,hypothermie modérée,"souris mâles; 256 mg/kg i.p., pendant 0,5 h",-1 °C
same,Observations (comportement global et réactivités),souris mâles; 512 mg/kg i.p.,"respiration déprimée, dyspnée, sédation, diminution de la réactivité au toucher, puis excitation au bout de 3 h"
same,mortalité,souris mâles; 512 mg/kg i.p.,pas de mortalité
same,Observations (comportement global et réactivités),souris mâles; 128 mg/kg i.p.,"sédation, puis excitation 3 h après admi-nistration"
same,Observations (comportement global et réactivités),souris mâles; 256 mg/kg i.p.,"sédation pendant 0,5 h avec diminution de la fréquence respiratoire - hyporéactivité au toucher pendant 2 h - hypothermie modérée (-1°C) pendant 0,5 h - excitation 3 h après administration"
same,apparition des convulsions anoxiques provoquées par le triiodoéthylate de gallamine,souris [13],retarde modérément
same,motilité spontanée,souris [6]; 256 mg/kg i.p.,hypermotilité nette
same,"signes de stimulation cholinergique périphérique, notamment la défécation",souris [14]; 64 mg/kg à 256 mg/kg i.p.,semble entraîner une diminution
same,intensité des tremblements provoqués par l'oxotrémorine,souris [14]; 256 mg/kg i.p.,semble diminuer modérément
same,action hypothermisante de l'oxotrémorine,souris [14]; dose not stated,ne modifie pratiquement pas
same,nombre de passages punis,"souris [15]; 0,5 h after administration, dose not stated",n'entraîne pas d'augmentation
same,effets convulsivants de l'électrochoc,souris [7]; 64 mg/kg à 256 mg/kg i.p.,s'oppose
same,Activité sur le SNC,SNC,stimulant
same,conclusion of the neuropsychopharmacological study: main type of CNS effect,SNC,agent psychotrope
same,activité chez la souris habituée à son enceinte,"souris [8]; 4 mg/kg, 64 mg/kg et 256 mg/kg i.p.",semble provoquer une reprise de l'activité
same,reprise de l'activité chez la souris habituée à son enceinte,souris [8]; intermediate dose 16 mg/kg i.p.,n'est pas observé
NC(=O)C[S+]([O-])C(c1ccccc1)c1ccc(F)cc1 (stereo not shown) [Exemple 9],action contre l'énurésie,homme,agissent efficacement
same,résultats en tant que médicaments de l'éveil,homme,excellents résultats
same,déficit moteur (traction),souris [10],ne provoque pas de déficit moteur
same,Action sur la durée du sommeil induit par le pentobarbital (50 mg/kg i.p.) effet,"souris mâle [1]; dose 16 mg/kg i.p., 0,5 h before pentobarbital",(a)
same,durée du sommeil barbiturique,souris [2]; [17],diminue nettement
same,hypothermie réserpinique,"souris [11]; 256 mg/kg i.p., 1,5 h",s'oppose tardivement
same,ptosis réserpinique,"souris [11]; 256 mg/kg i.p., 24 h",s'oppose tardivement
same,DL-O,souris mâle [4],supérieure à 512 mg/kg
same,Observations (comportement global et réactivités),rats mâles; 8 mg/kg i.p.,"hyporéactivité fugace (0,5 h) et diminution du tonus musculaire"
same,Observations (comportement global et réactivités),rats mâles; 32 mg/kg i.p.,"diminution fugace (0,5 h) de la réactivité au toucher et du tonus musculaire"
same,Observations (comportement global et réactivités),rats mâles; 128 mg/kg i.p.,"excitation pendant 2 h avec hyper-réactivité au toucher pendant 0,5 h"
same,durée d'immobilité,souris [5]; [17],diminue fortement
same,action hypothermisante de l'apomorphine,souris [12]; 256 mg/kg i.p.,s'oppose
same,comportement de verticalisation et stéréotypies (apomorphine),souris [12]; 256 mg/kg i.p.,sans modifier
same,Observations (comportement global et réactivités),souris mâles; 16 mg/kg i.p.,excitation pendant 1 h pour 33 % des animaux
same,excitation,"souris mâles; 16 mg/kg i.p., pendant 1 h",33 % des animaux
same,Observations (comportement global et réactivités),souris mâles; 64 mg/kg i.p.,"excitation apparaissant en 30 minutes, maximale après 2 h et durant 24 h - apparition tardive (2-3 h)- 4 mouvements stéréotypés de faible intensité - réactivité au toucher pendant 2-3 h"
same,Observations (comportement global et réactivités),souris mâles; 256 mg/kg i.p.,excitation apparaissant en 30 minutes et maximale 2 à 3 h après administration - présence de stétréotypies nettes mais tardives - réactivité au toucher pendant 3 h
same,durée de l'hypermotilité,souris [6],≥ 4 h
same,time of maximal hypermotility after administration,souris [6],"0,5 h"
same,motilité spontanée,souris [6]; dès la dose de 16 mg/kg i.p.,pypermotilité
same,signes de stimulation cholinergique périphérique dus à l'oxotrémorine,souris [14]; dose not stated,ne modifie pas
same,tremblements induits par l'oxotrémorine,souris [14]; dose not stated,n'est pratiquement pas modifiée
same,baisse de température provoquée par l'oxotrémorine,souris [14]; highest dose used,s'oppose
same,passages punis,souris [15]; 64 et 256 mg/kg i.p.,nette augmentation
same,effets convulsivants de l'électrochoc,souris [7]; 256 mg/kg i.p.,s'oppose partiellement
same,Activité sur le SNC,SNC,stimulant
same,conclusion of the neuropsychopharmacological study: main type of CNS effect,SNC,effet stimulant du SNC qui est essentiel
same,conclusion: effets de type antidépresseur,SNC,à forte dose seulement un effet antidépresseur du SNC
same,activité motrice chez la souris habituée à son enceinte,souris [8]; 64 mg/kg et 256 mg/kg i.p.,reprise de l'activité motrice
